From article PMC7697635, “Dual RNase and β-lactamase Activity of a Single Enzyme Encoded in Archaea” (Life, 2020)

How the values were obtained:
[1] = system: T1, archaeal class C-like β-lactamase; test: nitrocefin hydrolysis, absorbance at […] nm, Michaelis-Menten fit; assay type: biochemical, Methanosarcina sp.; settings: room temperature; 4 µM enzyme; 0.05-1.5 mM nitrocefin
T1 construct: gene class C-like beta-lactamase

[2] = target: T2, MetbaB (Methanosarcina β-lactamase class B) (Methanosarcina barkeri, UniProt A0A0E3SJT9); test: inhibition of nitrocefin hydrolysis, absorbance at […] nm; assay type: biochemical; settings: substrate nitrocefin; 1 µg/mL sulbactam; 30 min
T2 construct: gene MSBR3_0040
T2 sequence (A0A0E3SJT9 1-213 limits assumed): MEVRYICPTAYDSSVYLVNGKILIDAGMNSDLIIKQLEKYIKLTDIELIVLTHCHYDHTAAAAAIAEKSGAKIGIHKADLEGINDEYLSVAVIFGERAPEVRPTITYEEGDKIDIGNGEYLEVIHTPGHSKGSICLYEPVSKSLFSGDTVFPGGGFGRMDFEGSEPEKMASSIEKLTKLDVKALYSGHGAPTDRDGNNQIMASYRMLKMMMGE

Row | SMILES | Km [1] | inhibition at 1 μg/mL [2]
1 | O=C(Cc1cccs1)N[C@@H]1C(=O)N2C(C(=O)O)=C(/C=C/c3ccc([N+](=O)[O-])cc3[N+](=O)[O-])CS[C@H]12 [nitrocefin] | 584 µM | –
2 | CC1(C)[C@H](C(=O)O)N2C(=O)C[C@H]2S1(=O)=O [sulbactam] | – | in the presence of sulbactam, no degradation of the nitrocefin β-lactam could be detected
